Results on 1 compound are retold here after article PMC5901408 (Pest Management Science, 2017).

Residue numbers refer to the chain shown, from its start.

Test [1] deals with T1, ZmEPSPS (Zea mays, UniProt A0A1D6NVZ6, P168A/T164I).
T1 sequence (A0A1D6NVZ6 63-506 T164I/P168A): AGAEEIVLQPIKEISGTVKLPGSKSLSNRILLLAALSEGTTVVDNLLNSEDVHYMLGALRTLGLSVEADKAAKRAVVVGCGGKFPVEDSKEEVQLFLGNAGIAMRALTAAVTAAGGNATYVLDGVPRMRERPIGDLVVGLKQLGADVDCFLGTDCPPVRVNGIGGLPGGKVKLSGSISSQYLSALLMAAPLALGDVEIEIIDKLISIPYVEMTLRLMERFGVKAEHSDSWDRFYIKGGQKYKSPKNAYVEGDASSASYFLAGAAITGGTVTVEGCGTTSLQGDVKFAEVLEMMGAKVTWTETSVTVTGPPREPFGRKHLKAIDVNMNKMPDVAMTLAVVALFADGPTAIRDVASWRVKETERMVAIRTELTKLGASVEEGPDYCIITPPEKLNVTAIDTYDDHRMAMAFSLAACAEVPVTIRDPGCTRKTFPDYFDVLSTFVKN
The test can be described thus: EPSPS enzyme activity assay, glyphosate titration. The test is classed as biochemical.

The target of test [2] is T2, ZmEPSPS (Zea mays, UniProt A0A1D6NVZ6).
T2 sequence (A0A1D6NVZ6 63-506): T1 sequence (A0A1D6NVZ6 63-506 T164I/P168A) with I102T, A106P
The test can be described thus: EPSPS enzyme activity assay, glyphosate titration. The format is biochemical.

Regarding `O=C(O)CNCP(=O)(O)O` [glyphosate], the concentration for half-maximal inhibition (IC50) amounted to 19.5 ± 2.8 mM in test [1] and 0.0139 ± 0.0035 mM in test [2].
